Data: patent publication US10858384B2, “Synthetic molecule constructs” (KODE BIOTECH LIMITED, priority 2004, dated 2020)

Assays:
RBCs [1] = assay: Detectable transformation ability of synthetic glycolipids (agglutination); assay type: cell-based; details: agglutination with the appropriate antibody
Description: The synthetic glycolipid must also be able to insert into the membrane and be recognisable to the appropriate antibody for transformation to be detected by agglutination. Initial tests on the molecules were to establish solubility and thus eliminate those molecules that were unsuitable for use in the transformation of cells.

RBCs [2] = assay: Evaluation of insertion of different lipid tails by agglutination with the relevant antisera; assay type: cell-based; parameters: scale not given here
Description: Transformation of RBCs with synthetic glycolipids with different lipid tails was first evaluated (Tables 22 and 24).

group O RBCs = assay: Diamed agglutination of RBCs transformed at 4° C. with synthetic glycolipids (weak A, B and AB cells); assay type: cell-based, human; details: 0.03 mg/mL, anti-A, time = table row
Method: Transformation of RBCs with synthetic glycolipids Atri-sp-Ad-DOPE (I) and Btri-sp-Ad-DOPE (VI) at 4° C. was then evaluated (Tables 25 to 28). These transformations were directed towards the preparation of cells expressing low levels of A, B or A and B glycotopes (“weak A, B and AB cells”).
For the preparation of weak A and B cells transformation solutions (20 μL, Atri-sp-Ad-DOPE (I) at 0.08, 0.05 and 0.03 mg/mL, and Btri-sp-Ad-DOPE (VI) at 0.6, 0.3, 0.15, 0.08, 0.05 and 0.03 mg/mL) in 1× PBS were mixed with washed, packed group O RBCs (60 μL).
For the preparation of weak AB cells transformation solutions (20 μL, Atrii-sp-Ad-DOPE (I) at 0.07, 0.06 and 0.05 mg/mL, and Btri-sp-Ad-DOPE (VI) at 0.3, and 0.2 mg/mL) in 1× PBS were combined in block titre with washed, packed group O RBCs (60 μL). The combinations were: Atri-sp-Ad-DOPE (I) at 0.07 mg/mL+Btri-sp-Ad-DOPE (VI) at 0.3 mg/mL; Atri-sp-Ad-DOPE (I) at 0.07 mg/mL+Btri-sp-Ad-DOPE (VI) at 0.2 mg/mL; Atri-sp-Ad-DOPE (I) at 0.06 mg/mL+Btri-sp-Ad-DOPE (VI) at 0.3 mg/mL; Atri-sp-Ad-DOPE (I) at 0.06 mg/mL+Btri-sp-Ad-DOPE (VI) at 0.2 mg/mL; Atri-sp-Ad-DOPE (I) at 0.05 mg/mL+Btri-sp-Ad-DOPE (VI) at 0.3 mg/mL; and Atri-sp-Ad-DOPE (I) 0.05+Btri-sp-Ad-DOPE (VI) 0.2 mg/mL.
Cells and transformation solutions were placed in a […] fridge. Pipette mixing was performed at intervals. […]

RBCs [3] = assay: Insertion efficiency: post-transformation supernatant solutions, tube serology; assay type: cell-based
Method: The post-transformation supernatant solutions (from Atri-sp-Ad-DOPE (I) at 0.08 mg/mL, 0.05 mg/mL and 0.03 mg/mL, and Btri-sp-Ad-DOPE (VI) at 0.6 mg/mL, 20 μL) were added neat and in a 1:2 dilution to washed, packed RBCs (60 μL). The tubes were incubated in a 37° C. waterbath for one hour, with mixing taking place every 15 minutes.
The transformed RBCs were washed 3× with PBS and then suspended in Cellstab™ at the appropriate concentration for serology testing.

RBCs [4] = assay: Column agglutination of RBCs transformed with sterile-filtered vs unfiltered synthetic glycolipid; assay type: cell-based; details: for Column agglutination: 0.01 mg/mL, anti-A BioClone
Description: Some Atri-sp-Ad-DOPE (I) had been sterile-filtered through a 0.2 μm filter. To investigate whether transformation would be the same with this product a comparative trial was done.

[5] = tested on: group O red blood cells (RBCs); assay: Tube serology of group O RBCs transformed at 37° C. with synthetic glycolipids; assay type: cell-based, human; parameters: Albaclone anti-A, Tube / Bioclone anti-A, Tube: scale not given here
Method: Washed packed group O red blood cells (RBCs) (3 parts by volume) and the synthetic glycolipid solution (1 part by volume, varying concentrations) were added to an eppendorf tube. The tube was incubated in a 37° C. waterbath for one hour, mixing every 15 minutes. […]
Tube serology and Diamed gel-card results for RBCs transformed with the different synthetic molecule constructs are provided in Table 38. Results for the stability of the RBCs transformed with the different synthetic glycolipids at different concentrations are provided in Tables 39 to 44.

CCCCCCCC/C=C\CCCCCCCC(=O)OC[C@H](COP(=O)(O)OCCNC(=O)CCCCC(=O)NCCCO[C@@H]1O[C@H](CO)[C@H](O)[C@H](O[C@H]2O[C@H](CO)[C@H](O)[C@H](O)[C@H]2NC(C)=O)[C@H]1O[C@@H]1O[C@@H](C)[C@@H](O)[C@@H](O)[C@@H]1O)OC(=O)CCCCCCC/C=C\CCCCCCCC [Atri-sp-Ad-DOPE (I)]
w+: Agglutination score (RBCs [2]; 30 μg/mL, Bio anti-A, first series) | Agglutination score (RBCs [2]; 40 μg/mL, Alba anti-A, first series) | Agglutination score (RBCs [2]; 50 μg/mL, Alba anti-A, first series) | Agglutination, manual tube serology, Albaclone anti-A ([5]; 0.025 mg/mL, Day 8, Alsevers) | Agglutination, manual tube serology, Bioclone anti-A ([5]; 0.025 mg/mL, Day 22, Alsevers) | Agglutination, manual tube serology, Albaclone anti-A ([5]; 0.025 mg/mL, Day 44, Cellstab) | Agglutination, manual tube serology, Bioclone anti-A ([5]; 0.025 mg/mL, Day 44, Cellstab) | Bioclone anti-A, Tube ([5]; 0.03 mg/mL) | Albaclone anti-A, Tube ([5]; 0.04 mg/mL) | Albaclone anti-A, Tube ([5]; 0.05 mg/mL) | Agglutination, manual tube serology, Albaclone anti-A ([5]; 0.05 mg/mL, Day 15, Cellstab)
no significant difference: Difference in transformation between sterile-filtered (0.2 μm) and unfiltered preparation (RBCs [4])
0: Agglutination score (RBCs [2]; 10 μg/mL, Alba anti-A, first series) | Agglutination score (RBCs [2]; 10 μg/mL, Bio anti-A, first series) | Agglutination score (RBCs [2]; 20 μg/mL, Alba anti-A, first series) | Agglutination score (RBCs [2]; 20 μg/mL, Bio anti-A, first series) | Agglutination score (RBCs [2]; 30 μg/mL, Alba anti-A, first series) | Agglutination score (RBCs [2]; 1000 μg/mL, DBA) | Agglutination score (group O RBCs; unwashed) | Agglutination score (group O RBCs; washed) | Score (tube serology) (RBCs [3]; 1:2, pre-trans conc 0.03 mg/mL) | Score (tube serology) (RBCs [3]; 1:2, pre-trans conc 0.05 mg/mL) | Score (tube serology) (RBCs [3]; 1:2, pre-trans conc 0.08 mg/mL) | Score (tube serology) (RBCs [3]; neat, pre-trans conc 0.03 mg/mL) | Score (tube serology) (RBCs [3]; neat, pre-trans conc 0.05 mg/mL) | Score (tube serology) (RBCs [3]; neat, pre-trans conc 0.08 mg/mL, 37° C. 1 h) | Column agglutination (RBCs [4]; sterile-filtered) | Column agglutination (RBCs [4]; unfiltered) | Albaclone anti-A, Tube ([5]; 0.01 mg/mL) | Bioclone anti-A, Tube ([5]; 0.01 mg/mL) | Albaclone anti-A, Tube ([5]; 0.02 mg/mL) | Bioclone anti-A, Tube ([5]; 0.02 mg/mL) | Agglutination, manual tube serology, Albaclone anti-A ([5]; 0.025 mg/mL, Day 15, Alsevers) | Agglutination, manual tube serology, Albaclone anti-A ([5]; 0.025 mg/mL, Day 15, Cellstab) | Agglutination, manual tube serology, Albaclone anti-A ([5]; 0.025 mg/mL, Day 22, Alsevers) | Albaclone anti-A, Tube ([5]; 0.03 mg/mL)
Yes: Detectable transformation ability (RBCs [1])
vw: Agglutination, manual tube serology, Albaclone anti-A ([5]; 0.025 mg/mL, Day 8, Cellstab)
Vw: Agglutination, manual tube serology, Bioclone anti-A ([5]; 0.025 mg/mL, Day 15, Alsevers)
